Broadly, the IC50 is the concentration at which inhibition is half-maximal. Higher therefore signals weaker potency.

The text below walks through data of BindingDB's records for doi:10.3109/14756366.2011.649269 (Università di Firenze, 2013).

What all share (experiment): Carbonic Anhydrase I, II, IV and XII Assay
Holding throughout (conditions): pH 7.5; 25 °C

In test [1] the target is Carbonic anhydrase 4 (Homo sapiens, UniProt P22748). As to the method: (§1) An Applied Photophysics stopped-flow instrument has been used for assaying the CA catalysed CO2 hydration activity [Khalifah et al., J. Biol. Chem., 246:2561-2573]. Phenol red (at a concentration of 0.2 mM) has been used as indicator, working at the absorbance maximum of 557 nm, with 10-20 mM Hepes (pH 7.5) as buffer, and 20 mM Na2SO4 (for maintaining constant the ionic strength), following the initial rates of the CA-catalyzed CO2 hydration reaction for a period of 10-100 s. The CO2 concentrations ranged from 1.7 to 17 mM for the determination of the kinetic parameters and inhibition constants. For each inhibitor at least six traces of the initial 5-10% of the reaction have been used for determining the initial velocity. The uncatalyzed rates were determined in the same manner and subtracted from the total observed rates. Stock solutions of inhibitor (10 mM) were prepared in distilled-deionised water and dilutions up to 0.01 nM were done thereafter with distilled-deionised water. Inhibitor and enzyme solutions were preincubated together for 15 min at room temperature prior to assay, in order to allow for the formation of the E-I complex.

Test [2] deals with Carbonic anhydrase 1 (Homo sapiens, UniProt P00915). The method, then: as §1
Test [3] concerns the target Carbonic anhydrase 12 (Homo sapiens, UniProt O43570). As to the method:
as §1

Test [4] addresses Carbonic anhydrase 2 (Homo sapiens, UniProt P00918). The method, then:
as §1

Carbonic anhydrase 1, sequence (P00915 whole entry): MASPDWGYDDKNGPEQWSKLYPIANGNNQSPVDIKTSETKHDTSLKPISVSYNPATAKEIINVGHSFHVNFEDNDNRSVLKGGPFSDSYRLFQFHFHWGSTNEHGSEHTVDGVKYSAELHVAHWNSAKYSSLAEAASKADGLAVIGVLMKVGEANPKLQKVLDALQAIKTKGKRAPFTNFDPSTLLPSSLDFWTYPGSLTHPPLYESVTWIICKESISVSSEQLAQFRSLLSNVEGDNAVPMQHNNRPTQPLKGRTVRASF
Carbonic anhydrase 12, sequence (O43570 whole entry): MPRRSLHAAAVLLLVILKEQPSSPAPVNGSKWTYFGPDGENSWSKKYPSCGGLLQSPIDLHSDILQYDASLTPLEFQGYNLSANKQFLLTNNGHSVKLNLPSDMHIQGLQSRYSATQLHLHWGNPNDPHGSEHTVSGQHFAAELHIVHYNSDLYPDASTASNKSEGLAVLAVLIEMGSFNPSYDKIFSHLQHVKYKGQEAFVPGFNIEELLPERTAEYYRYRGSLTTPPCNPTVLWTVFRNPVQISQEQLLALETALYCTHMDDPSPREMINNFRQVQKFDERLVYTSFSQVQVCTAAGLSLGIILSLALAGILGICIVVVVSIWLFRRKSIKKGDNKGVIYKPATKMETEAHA
Carbonic anhydrase 4, sequence (P22748 whole entry): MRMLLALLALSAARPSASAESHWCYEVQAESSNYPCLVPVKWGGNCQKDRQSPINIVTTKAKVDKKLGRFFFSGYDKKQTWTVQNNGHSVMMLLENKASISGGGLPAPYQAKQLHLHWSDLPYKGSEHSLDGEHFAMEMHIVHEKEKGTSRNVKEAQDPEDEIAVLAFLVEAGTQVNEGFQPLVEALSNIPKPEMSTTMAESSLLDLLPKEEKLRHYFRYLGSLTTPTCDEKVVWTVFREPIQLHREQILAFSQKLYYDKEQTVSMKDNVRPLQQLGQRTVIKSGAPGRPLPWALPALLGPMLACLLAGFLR

As for `NS(=O)(=O)c1ccc(C(=O)NCCCN2CCOCC2)cc1` [4-Sulfamoyl-N-(3-morpholinopropyl)benzamide (I-1)], the IC50 in test [1] worked out at 611 nM; in test [2], 231 nM; in test [3], 645 nM; in test [4] it was 216 nM.

On to `NS(=O)(=O)c1ccc(S(=O)(=O)NCCCN2CCOCC2)cc1` [N-(3-morpholinopropyl)benzene-1,4-disulfonamide (I-2)], for which the IC50 was 499 nM in test [1], 57.7 nM in test [2], 517 nM in test [3] and 65.8 nM in test [4].

On to `CCN(CC)CCOc1ccc(CNS(=O)(=O)c2ccc(S(N)(=O)=O)cc2)cc1` [N-(4-diethylaminoethoxybenzyl)benzene-1,4-bis-sulfonamide (I-3)], for which the IC50 is 508 nM in test [1], 59.8 nM in test [2], 737 nM in test [3] and 81.1 nM in test [4].
